What is called IC50 is the concentration at which inhibition is half-maximal.

IC50 data for 8 compounds are collected here from PubChem BioAssay AID651782 (The Scripps Research Institute Molecular Screening Center, 2012).

Activity calls are given as the source filed them.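 The calls were made as follows: active = IC50 of 10 µM or lower; inactive = IC50 above 10 µM.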 Where only a bound is given, the exact number is not on record here.

The target in the experiment is Nuclear receptor coactivator 2 (Homo sapiens) (UniProt Q15596). Put plainly: inhibition of GAL4-SRC2 reporter transcription – cell-based, HEK293, GAL4-SRC2 luciferase, powder samples, selectivity assay for SRC3 inhibitor project, late-stage follow-up (AID 651782). Conditions: luminescence.
Chain of Nuclear receptor coactivator 2 (Homo sapiens) (Q15596 whole entry, looked up, the tested form may be a part): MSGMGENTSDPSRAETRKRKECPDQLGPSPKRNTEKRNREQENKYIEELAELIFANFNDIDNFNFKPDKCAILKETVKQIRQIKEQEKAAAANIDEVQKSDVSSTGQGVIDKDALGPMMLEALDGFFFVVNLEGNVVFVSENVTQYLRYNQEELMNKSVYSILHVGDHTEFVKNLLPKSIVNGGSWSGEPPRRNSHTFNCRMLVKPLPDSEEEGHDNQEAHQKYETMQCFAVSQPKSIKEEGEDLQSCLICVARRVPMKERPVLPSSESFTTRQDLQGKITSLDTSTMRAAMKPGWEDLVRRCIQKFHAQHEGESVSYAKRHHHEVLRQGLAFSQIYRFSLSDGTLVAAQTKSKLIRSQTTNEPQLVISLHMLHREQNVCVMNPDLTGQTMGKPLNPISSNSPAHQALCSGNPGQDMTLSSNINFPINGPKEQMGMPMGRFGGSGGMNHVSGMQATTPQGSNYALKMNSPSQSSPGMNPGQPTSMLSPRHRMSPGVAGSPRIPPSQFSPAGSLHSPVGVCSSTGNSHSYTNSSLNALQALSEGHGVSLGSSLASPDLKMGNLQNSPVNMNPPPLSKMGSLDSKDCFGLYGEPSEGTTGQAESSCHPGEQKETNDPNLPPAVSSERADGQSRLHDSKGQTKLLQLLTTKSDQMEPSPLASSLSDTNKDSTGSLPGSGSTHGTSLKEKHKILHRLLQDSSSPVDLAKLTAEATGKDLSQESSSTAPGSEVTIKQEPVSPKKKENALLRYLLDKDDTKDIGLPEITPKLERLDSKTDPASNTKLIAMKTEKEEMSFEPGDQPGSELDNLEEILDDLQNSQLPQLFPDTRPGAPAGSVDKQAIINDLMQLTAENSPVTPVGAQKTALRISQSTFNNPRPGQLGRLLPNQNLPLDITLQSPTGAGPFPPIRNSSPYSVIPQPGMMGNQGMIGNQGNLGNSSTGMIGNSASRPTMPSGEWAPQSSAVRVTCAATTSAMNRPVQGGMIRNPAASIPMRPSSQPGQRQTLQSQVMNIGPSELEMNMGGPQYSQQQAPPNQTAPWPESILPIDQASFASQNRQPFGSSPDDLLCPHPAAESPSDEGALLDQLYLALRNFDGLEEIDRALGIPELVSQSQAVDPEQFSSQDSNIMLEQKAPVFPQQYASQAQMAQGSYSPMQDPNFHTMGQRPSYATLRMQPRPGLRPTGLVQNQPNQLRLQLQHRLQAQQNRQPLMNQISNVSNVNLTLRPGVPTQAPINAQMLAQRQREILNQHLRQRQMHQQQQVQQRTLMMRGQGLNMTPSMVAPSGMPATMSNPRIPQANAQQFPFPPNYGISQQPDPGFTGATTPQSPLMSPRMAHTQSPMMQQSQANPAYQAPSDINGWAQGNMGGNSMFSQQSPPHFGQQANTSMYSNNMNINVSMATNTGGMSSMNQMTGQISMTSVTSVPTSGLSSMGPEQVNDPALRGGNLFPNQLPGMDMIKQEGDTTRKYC

For `O=C(COC(=O)c1ccc[nH]c1=O)Nc1ccc(N2CCCCC2)cc1`, the IC50 was > 35.9 µM (inactive).
Under `CC(C)(C)c1ccc(-c2noc(CCC(=O)Nc3cccnc3)n2)cc1` stands > 35.9 µM (inactive); under `CCCNC(=O)c1nnsc1S(=O)(=O)c1ccc(Cl)cc1`, “inactive”; under `CN1C(=O)C2(C(C#N)=C(N)N(c3cc(Cl)cc(Cl)c3)C3=C2C(=O)CC(C)(C)C3)c2ccccc21` (stereo not drawn), “inactive”.
For `Cc1ccc(OCC(=O)c2cc(C)n(-c3ccccc3)c2C)c([N+](=O)[O-])n1` the value was “inactive”; for `CN1C(=O)C2(C(C#N)=C(N)N(c3cc(Cl)cc(Cl)c3)C3=C2C(=O)CCC3)c2ccccc21` (stereo not drawn), > 35.9 µM (inactive).
For `O=C(Nc1ccccc1Oc1ccccc1)c1cc([N+](=O)[O-])ccc1Cl`, the IC50 is 5.4 µM.
As for `OCCN1CCN(C(=S)c2ccc(-c3ccccc3)cc2)CC1`, the IC50 is 4.68 µM.
